Measurements as given in ChEMBL document CHEMBL1131647, “Enzymatic synthesis of a modified phospholipid and its evaluation as a substrate for B. cereus phospholipase C” (Bioorg Med Chem Lett, 1998).

Experiments:
[1] = tested on: Phospholipase C (Bacillus cereus); experiment: Compound was evaluated for its […] activity against phospholipase C from Bacillus cereus
[2] = tested on: Phospholipase C (Bacillus cereus); experiment: Critical Micellar Concentration for the compound was calculated for phospholipase C from Bacillus cereus

CMC [2]	Structure (SMILES)	k cat [1]
	CCCCCC(=O)OCC(COP(=O)([O-])OCC[N+](C)(C)C)OC(=O)CCCCC (stereo not drawn)	1000 s⁻¹
9.5 mM	CCCCCC(=O)OCC(COP(=O)(O)OCCC(C)(C)C)OC(=O)CCCCC (stereo not drawn)	5.2 s⁻¹
